According to USRE47302E1 (ONYX THERAPEUTICS INC., priority 2013, dated 2019):
≈ marks a conversion by molar mass, not a printed value. Where two headings read alike, the source gives them in different places.

Assays:
[1] = target: T1, proteasome subunit β5 (beta5) (Homo sapiens, UniProt P28074); test: Proteasome active-site ELISA (ProCISE), beta5, MOLT-4 lysate; type: biochemical; settings: MOLT4 lysate, human, 1 h continuous treatment, 25° C.
T1 construct: Lysate from the human acute lymphoblastic leukemia cell line, MOLT-4; endogenous in cells; host or cells: MOLT-4
Method: (§1) Test compounds were serially diluted in DMSO at 100× concentration, then diluted to 10× in aqueous hypotonic lysis buffer. Lysate from the human acute lymphoblastic leukemia cell line, MOLT-4, was treated for 1 hour at 25° C. with compound at a final 1× concentration. […] Following, lysate was denatured in guanidine hydrochloride, and subunits bound to probe were isolated with streptavidin-conjugated sepharose beads. Individual subunits (e.g., β5, LMP7, LMP2, MECL-1) were probed with subunit-specific primary antibodies, followed by HRP-conjugated secondary antibodies. A chemiluminescent substrate was used to generate signal associated with HRP binding, which was detected on a plate reader. Luminescent signal was normalized to protein content, then, percent activity calculated relative to DMSO-treated controls to generate IC50 curves.

[2] = target: T2, immunoproteasome subunit LMP7 (Homo sapiens, UniProt P28062); test: Proteasome active-site ELISA (ProCISE), LMP7, MOLT-4 lysate; type: biochemical; settings: read-out: ProCISE LMP7 MOLT4 lysate Hu 1 h CONT: IC50, 1 h continuous treatment, 25° C.
T2 construct: Lysate from the human acute lymphoblastic leukemia cell line, MOLT-4; endogenous in cells; host or cells: MOLT-4
Method: as §1

Solubility pH 7 = settings: pH 7, aqueous buffer

SMILES | solubility (Solubility pH 7) | other results
COc1ccc(C[C@H](NC(=O)[C@@H](COCc2ccccc2)NC(=O)CN2CCOCC2)C(=O)N[C@@H](Cc2ccccc2)C(=O)[C@@]2(C)CO2)cc1 [Compound C-1156] |  | IC50 ([1]; read-out: ProCISE beta5 MOLT4 lysate Hu 1 h CONT: IC50): 0.175 µM; IC50 [2]: 0.0508 µM
COc1ccc(C[C@H](NC(=O)[C@@H](C)NC(=O)[C@]2(C)CC[C@H](O)CC2)C(=O)N[C@@H](CC2=CCCC2)C(=O)[C@@]2(C)CO2)cc1 [Compound C-1112, (1s,4S)-N-((R)-1-(((S)-1-(((S)-3-(cyclopent-1-en-1-yl)-1-((R)-2-methyloxiran-2-yl)-1-oxopropan-2-yl)amino)-3-(4-methoxyphenyl)-1-oxopropan-2-yl)amino)-1-oxopropan-2-yl)-4-hydroxy-1-methylcyclohexanecarboxamide] | 1110 µg/mL (≈ 1.91 mM) | 
C[C@H](NC(=O)CN1CCOCC1)C(=O)N[C@@H](Cc1ccc(O)cc1)C(=O)N[C@@H](CC1CCCC1)C(=O)[C@@]1(C)CO1 [Compound C-1113, (S)-N-((S)-3-cyclopentyl-1-((R)-2-methyloxiran-2-yl)-1-oxopropan-2-yl)-3-(4-hydroxyphenyl)-2-((S)-2-(2-morpholinoacetamido)propanamido)propanamide] | 3790 µg/mL (≈ 6.78 mM) | 
COc1ccc(C[C@H](NC(=O)[C@H](C)NC(=O)CN2CCOCC2)C(=O)N[C@@H](CC2=CCCC2)C(=O)[C@@]2(C)CO2)cn1 [Compound C-1140, (S)-N-((S)-3-(cyclopent-1-en-1-yl)-1-((R)-2-methyloxiran-2-yl)-1-oxopropan-2-yl)-3-(6-methoxypyridin-3-yl)-2-((S)-2-(2-morpholinoacetamido)propanamido)propanamide] | > 10000 µg/mL | 
COc1ccc(C[C@H](NC(=O)[C@@H](C)NC(=O)[C@@H]2CNC(=O)C2)C(=O)N[C@@H](CC2CCCC2)C(=O)[C@@]2(C)CO2)cc1 [Compound C-1068, (S)-N-((R)-1-(((S)-1-(((S)-3-cyclopentyl-1-((R)-2-methyloxiran-2-yl)-1-oxopropan-2-yl)amino)-3-(4-methoxyphenyl)-1-oxopropan-2-yl)amino)-1-oxopropan-2-yl)-5-oxopyrrolidine-3-carboxamide] | 4410 µg/mL (≈ 7.92 mM) | 
COc1ccc(C[C@H](NC(=O)[C@H](C)NC(=O)CN2CCOCC2)C(=O)N[C@@H](CC2=CCCCC2)C(=O)[C@@]2(C)CO2)cc1O [Compound C-1100] | 4570 µg/mL (≈ 7.61 mM) | 
Cc1ccc(C[C@H](NC(=O)[C@H](C)NC(=O)CN2CCOCC2)C(=O)N[C@@H](CC2=CCCCC2)C(=O)[C@@]2(C)CO2)cc1O [Compound C-1130, (S)-N-((S)-3-(cyclohex-1-en-1-yl)-1-((R)-2-methyloxiran-2-yl)-1-oxopropan-2-yl)-3-(3-hydroxy-4-methylphenyl)-2-((S)-2-(2-morpholinoacetamido)propanamido)propanamide] | 1140 µg/mL (≈ 1.95 mM) | 
COc1ccc(C[C@H](NC(=O)[C@@H](C)NC(=O)[C@H]2CNC(=O)C2)C(=O)N[C@@H](CC2CCCC2)C(=O)[C@@]2(C)CO2)cc1 [Compound C-1067, (R)-N-((R)-1-(((S)-1-(((S)-3-cyclopentyl-1-((R)-2-methyloxiran-2-yl)-1-oxopropan-2-yl)amino)-3-(4-methoxyphenyl)-1-oxopropan-2-yl)amino)-1-oxopropan-2-yl)-5-oxopyrrolidine-3-carboxamide] | 4590 µg/mL (≈ 8.25 mM) | 
COc1ccc(C[C@H](NC(=O)[C@H](C)NC(=O)C2CN(C)C2)C(=O)N[C@@H](Cc2ccccc2)C(=O)[C@@]2(C)CO2)cc1 [Compound C-1172, N-((S)-1-(((S)-3-(4-methoxyphenyl)-1-(((S)-1-((R)-2-methyloxiran-2-yl)-1-oxo-3-phenylpropan-2-yl)amino)-1-oxopropan-2-yl)amino)-1-oxopropan-2-yl)-1-methylazetidine-3-carboxamide] | 1900 µg/mL (≈ 3.46 mM) | 
COc1ccc(C[C@H](NC(=O)[C@H](C)NC(=O)CN2CCNC(=O)C2)C(=O)N[C@@H](CC2=CCCC2)C(=O)[C@@]2(C)CO2)cc1 [Compound C-1120, (S)-N-((S)-3-(cyclopent-1-en-1-yl)-1-((R)-2-methyloxiran-2-yl)-1-oxopropan-2-yl)-3-(4-methoxyphenyl)-2-((S)-2-(2-(3-oxopiperazin-1-yl)acetamido)propanamido)propanamide] | 8000 µg/mL (≈ 13.7 mM) | 
C[C@H](NC(=O)CN1CCOCC1)C(=O)NC(Cc1ccc2c(c1)COC(=O)N2)C(=O)N[C@@H](CC1CCCC1)C(=O)[C@@]1(C)CO1 (stereo partly drawn) [Compound C-1101, N-((S)-3-cyclopentyl-1-((R)-2-methyloxiran-2-yl)-1-oxopropan-2-yl)-2-((S)-2-(2-morpholinoacetamido)propanamido)-3-(2-oxo-2,4-dihydro-1H-benzo[d][1,3]oxazin-6-yl)propanamide] | 4090 µg/mL (≈ 6.67 mM) | 
COc1ccc(C[C@H](NC(=O)[C@H](C)NC(=O)[C@@H]2CCCN2C)C(=O)N[C@@H](Cc2ccccc2)C(=O)[C@@]2(C)CO2)cc1 [Compound C-1165] | 2150 µg/mL (≈ 3.8 mM) | 
C[C@H](NC(=O)CN1CCOCC1)C(=O)N[C@@H](Cc1ccc(OC(F)(F)F)cc1)C(=O)N[C@@H](CC1CCCC1)C(=O)[C@@]1(C)CO1 [Compound C-1084, (S)-N-((S)-3-cyclopentyl-1-((R)-2-methyloxiran-2-yl)-1-oxopropan-2-yl)-2-((S)-2-(2-morpholinoacetamido)propanamido)-3-(4-(trifluoromethoxy)phenyl)propanamide] | 125 µg/mL (≈ 0.2 mM) | 
C[C@H](NC(=O)CN1CCOCC1)C(=O)N[C@@H](Cc1ccc2cc[nH]c2c1)C(=O)N[C@@H](CC1CCCC1)C(=O)[C@@]1(C)CO1 [Compound C-1124, (S)-N-((S)-3-cyclopentyl-1-((R)-2-methyloxiran-2-yl)-1-oxopropan-2-yl)-3-(1H-indol-6-yl)-2-((S)-2-(2-morpholinoacetamido)propanamido)propanamide] | 56.5 µg/mL (≈ 0.0971 mM) | 
C[C@H](NC(=O)CN1CCOCC1)C(=O)N[C@@H](CCc1ccccc1)C(=O)N[C@@H](CC1=CCCC1)C(=O)[C@@]1(C)CO1 [Compound C-1128, (S)-N-((S)-3-(Cyclopent-1-en-1-yl)-1-((R)-2-methyloxiran-2-yl)-1-oxopropan-2-yl)-2-((S)-2-(2-morpholinoacetamido)propanamido)-4-phenylbutanamide] | 1370 µg/mL (≈ 2.47 mM) | 
COc1ccc(C[C@H](NC(=O)[C@@H](C)NC(=O)[C@@H]2CC[C@@H](O)C2)C(=O)N[C@@H](CC2CCCC2)C(=O)[C@@]2(C)CO2)cc1 [Compound C-1077, (1R,3R)-N-((R)-1-(((S)-1-(((S)-3-cyclopentyl-1-((R)-2-methyloxiran-2-yl)-1-oxopropan-2-yl)amino)-3-(4-methoxyphenyl)-1-oxopropan-2-yl)amino)-1-oxopropan-2-yl)-3-hydroxycyclopentanecarboxamide] | 1540 µg/mL (≈ 2.75 mM) | 

Further lines, with some results ahead:

solubility (Solubility pH 7) | SMILES | other results
1670 µg/mL (≈ 2.86 mM) | COc1ccc(C[C@H](NC(=O)[C@H](C)NC(=O)CN2CCOCC2)C(=O)N[C@@H](C[C@H]2C[C@@H]3C[C@@H]3C2)C(=O)[C@@]2(C)CO2)cc1 [Compound C-1094, (S)-N-((S)-3-((1R,3s,5S)-bicyclo[3.1.0]hexan-3-yl)-1-((R)-2-methyloxiran-2-yl)-1-oxopropan-2-yl)-3-(4-methoxyphenyl)-2-((S)-2-(2-morholinoacetamido)propanamido)propanamide] | 
1890 µg/mL (≈ 3.34 mM) | COc1ccc(C[C@H](NC(=O)C(C)NC(=O)CN2CCOCC2)C(=O)N[C@H](C(=O)[C@@]2(C)CO2)c2ccccc2)cc1 (stereo partly shown) [Compound C-1176] | 
682 µg/mL (≈ 1.26 mM) | CC#CC[C@H](NC(=O)[C@H](Cc1ccc(OC)cc1)NC(=O)[C@H](C)NC(=O)CN1CCOCC1)C(=O)[C@@]1(C)CO1 [Compound C-1228] | 
2340 µg/mL (≈ 4 mM) | COc1ccc(C[C@H](NC(=O)[C@H](C)NC(=O)CN2CCOCC2)C(=O)N[C@@H](C[C@H]2[C@@H]3CCC[C@@H]32)C(=O)[C@@]2(C)CO2)cc1 [Compound C-1142, (S)-N-((S)-3-((1R,5S,6r)-bicyclo[3.1.0]hexan-6-yl)-1-((R)-2-methyloxiran-2-yl)-1-oxopropan-2-yl)-3-(4-methoxyphenyl)-2-((S)-2-(2-morpholinoacetamido)propanamido)propanamide] | 
> 10 µg/mL | COc1ccc(C[C@H](NC(=O)[C@H](C)NC(=O)CN2CCOCC2)C(=O)N[C@@H](CC2CNC(=O)C2)C(=O)[C@@]2(C)CO2)cc1 (stereo partly drawn) [Compound C-1035, (2S)-3-(4-methoxyphenyl)-N-((2S)-1-((R)-2-methyloxiran-2-yl)-1-oxo-3-(5-oxopyrrolidin-3-yl)propan-2-yl)-2-((S)-2-(2-morpholinoacetamido)propanamido)propanamide] | 
8780 µg/mL (≈ 14.9 mM) | COc1ccc(C[C@H](NC(=O)[C@H](C)NC(=O)CN2CCOCC2)C(=O)N[C@@H](CN2CCCC2=O)C(=O)[C@@]2(C)CO2)cc1 [Compound C-1042, (S)-3-(4-methoxyphenyl)-N-((S)-1-((R)-2-methyloxiran-2-yl)-1-oxo-3-(2-oxopyrrolidin-1-yl)propan-2-yl)-2-((S)-2-(2-morpholinoacetamido)propanamido)propanamide] | 
1760 µg/mL (≈ 3.01 mM) | COc1ccc(C[C@H](NC(=O)[C@H](C)NC(=O)CN2CCOCC2)C(=O)N[C@@H](CC2=CCCCC2)C(=O)[C@@]2(C)CO2)cc1 [Compound C-1019, (S)-N-((S)-3-(cyclohex-1-en-1-yl)-1-((R)-2-methyloxiran-2-yl)-1-oxopropan-2-yl)-3-(4-methoxyphenyl)-2-((S)-2-(2-morpholinoacetamido)propanamido)propanamide] | IC50 [1]: 9.33 µM
